Values joined by “and” are separate entries in the source; they are usually repeats but may differ in a detail not shown here. Equal values may be shown once. “Also recorded” adds a separate entry of the source.
Assays:
[1] = tested on: primary pancreatic tumors; assay: Patient-derived primary pancreatic cancer explant model
Protocol: (§1) An additional 6 primary pancreatic tumors were evaluated at 60 mg/kg.

[2] = mouse, in vivo
[3] = tested on: apoptosis pathway (PARP cleavage, caspase-3/7, cleaved cytokeratin-18); assay: Phase 1 apoptosis pathway activation markers in patients; type: in vivo, human
[4] = tested on: MDA-MB-231 xenograft; assay: Tumor growth inhibition in MDA-MB-231 xenograft; type: in vivo, mice
[5] = tested on: Panc1; assay: Panc1 immunoblotting and Trypan blue staining, alone and with TRAIL; type: cell-based
[6] = tested on: primary human melanoma tumor xenograft; assay: Efficacy in primary human melanoma tumor xenograft models
[7] = tested on: advanced solid tumors and lymphoma; assay: Phase 1 anti-tumor activity in patients with refractory solid tumors or lymphoma; type: in vivo, human
[8] = human, in vivo
[9] = mouse, in vivo; remark: listed apart in the source
[10] = Phase 1 safety and tolerability in patients; details: for tolerability: patients
[11] = in vivo
[12] = tested on: primary pancreatic tumors; details: mouse, in vivo
Protocol: as §1

[13] = 60 mg/kg i.p. twice weekly, 28 days
[14] = TL32711 combined with carboplatin and paclitaxel
[15] = CRC Patient 01-202, dose cohort 0.36 mg/m^2
[16] = CRC Patient 01-801, dose cohort 17.2 mg/m^2
[17] = Melanoma Patient 01-703, dose cohort 11.5 mg/m^2
[18] = patients with solid tumors and lymphoma

## CC[C@H](NC(=O)[C@H](C)NC)C(=O)N1C[C@@H](O)C[C@H]1Cc1c(-c2[nH]c3cc(F)ccc3c2C[C@@H]2C[C@H](O)CN2C(=O)[C@H](CC)NC(=O)[C@H](C)NC)[nH]c2cc(F)ccc12 [TL32711, N-{1S-[2R-(6,6′-Difluoro-3′-{4S-hydroxy-1-[2S-(2S-methylamino-propionylamino)-butyryl]-pyrrolidin-2R-ylmethyl}-1H,1′H-[2,2′]biindolyl-3-ylmethyl)-4S-hydroxy-pyrrolidine-1-carbonyl]-propyl}-2S-methylamino-propionamide]
[1]; 30 mg/kg i.p. twice weekly
  growth inhibition in primary tumor #17624: significant growth inhibition
  significant growth inhibition in primary tumor #12872: not
[1]; [13]
  T/C in the 2 primary tumors with suboptimal growth inhibition: ~0.4
  T/C in the 6 primary tumors with significant growth arrest/inhibition: −0.1 to 0.2
[1]; all dose levels (30, 45, 60 mg/kg i.p. twice weekly)
  toxicity in the tumor-bearing mice: No significant toxicity
[1]; i.p. twice weekly, dose escalation
  dose achieving significant growth inhibition in both #17624 and #12872: >= 45 mg/kg
[2]
  half-life in plasma: 20 h
  half-life in tumor: 96 h
[3]
  PBMC PARD cleavage and plasma caspase-3 activity: dose related increase
  activated serum caspase-3/7 and cleaved cytokeratin-18 levels: dose-related
[4]; mice bearing MDA-MB-231 xenograft
  cIAP1 inhibition in tumors throughout the dosing interval at which significant tumor growth delay and regressions were observed: > 75%
[4]; q3D, MDA-MB-231 xenograft
  doses causing significant tumor growth inhibition and regressions: ≥ 2.5 mg/kg
[5]; Panc1, TL32711 alone
  pro-apoptotic effect: dose-dependent pro-apoptotic effect
[5]; Panc1, TL32711 with TRAIL
  pro-apoptotic effect with TRAIL co-incubation: synergized
[5]; Panc1, immunoblotting
  cIAP1 degradation and caspase-3 activation: rapid cIAP1 degradation leading to caspase-3 activation
[6]; 15 mg/kg twice/week versus 30 mg/kg once/week, primary melanoma model
  anti-tumor activity of biweekly versus weekly dosing schedule: did not result in enhanced anti-tumor activity
[6]; [14]
  models with tumor regressions: 4 of the 6
  reduction in bodyweight (tolerability): < 14%
[6]; single agent TL32711, 30 mg/kg IP
  primary melanoma tumor xenografts with significant tumor growth inhibition: 5 of 6 and 5/6
[7]; [15]
  cycles received before disease progression: Patient received 6 cycles (24 weeks) of TL32711 before disease
  metastatic lesions decreased on CT scan after 2 cycles: CT scan; 3 of 5 metastatic lesions decreased after 2 cycles of
  response by RECIST criteria after 2 cycles: TL32711 - Stable Disease by RECIST criteria
[7]; [16]
  clinical improvement during first 2 cycles: Patient had marked clinical improvement of early satiety and pain
  disease progression after 2 cycles: Patient progressed with development of a new liver lesion after
  patient's CEA after 1 cycle: decreased (150 to 90)
  photopenic lesion developed in a hepatic metastasis after 1 cycle: 4-5 cm
[7]; [17]
  disease progression: Progressed after 3rd cycle with increasing cutaneous lesions
  response by RECIST criteria after 2 cycles: Stable Disease by RECIST criteria after 2 cycles of TL32711
[7]; Phase 1 patients
  anti-tumor activity in patients (overall): promising early signs of anti-tumor activity; also recorded: Evidence of anti-tumor activity observed
[8]
  Fever, Number of Grade 1 or 2 Events (%): 4 (11%)
  Grade 3 or Grade 4 Adverse Events attributed to study drug: No Grade 3 or Grade 4 Adverse Events attributed to study drug
  Lymphocytopenia, Number of Grade 1 or 2 Events (%): 2 (6%)
  Nausea, Number of Grade 1 or 2 Events (%): 5 (14%)
  Rash, Number of Grade 1 or 2 Events (%): 3 (8%)
[9]
  TL32711 tumor half-life after increase in exposure: 166 h
  TL32711 tumor half-life before increase in exposure: 56 h
  increase in tumor exposure for a 4-fold increase in dose: 14 fold
[10]
  tolerability: well tolerated
[10]; [18]
  dose-limiting toxicities: no dose-limiting toxicities
  maximum tolerated dose (MTD): has not been reached
[10]; listed as Compound 15
  tolerability: unexpectedly well tolerated
[10]; two patients, 63 mg/m^2 weekly, 3 weeks on/1 week off
  tolerability at 63 mg/m^2: not well tolerated
[11]; human
  half-life in the patient: long half-life
  inter-patient variability in Cmax and AUC: moderate to low
  retention (half-life) in tumor tissues: 49 h
  t1/2 in PBMCs: 29 to 35 h
  terminal half-life in plasma: 35 h
  terminal half-life in tumor tissue: 52 h
[11]; human, iv
  plasma terminal t½: 73 to 79 h
[11]
  estimated tumor exposure in patients versus primary human tumor xenograft models in mice: in excess of the measured drug levels
[12]
  relation of efficacy to tumor drug exposure: efficacy correlated with tumor drug exposure
